Data taken from patent publication US7902327B2, “Dendrimeric peptides, pharmaceutical compositions and methods of using the same” (New York University School of Medicine, priority 2007, dated 2011).
≈ marks a conversion by molar mass, not a printed value. Where a SMILES comes first, the peptide text is derived from it. Side-chain parts run from the residue outwards. [ ]: non-standard residue; d: D form. The star is where a group is joined. Lys(α,ε-(ArgTrp)2) = N=C(N)NCCC[C@H](N)C(=O)N[C@@H](Cc1c[nH]c2ccccc12)C(=O)NCCCC[C@H](NC(=O)[C@H](Cc1c[nH]c2ccccc12)NC(=O)[C@@H](N)CCCNC(=N)N)C(=O)*; NHBn = c1ccc(CN*)cc1; OBn = c1ccc(CO*)cc1; X1 = CCCCCCCCCN*; βAla = NCCC(=O)O

tested on: E. faecalis (29212); settings: 29212

Row | SMILES | MIC50 E. faecalis
1 | N=C(N)NCCC[C@H](N)C(=O)N[C@@H](Cc1c[nH]c2ccccc12)C(=O)NCCCC[C@H](NC(=O)[C@H](Cc1c[nH]c2ccccc12)NC(=O)[C@@H](N)CCCNC(=N)N)C(=O)NCCCC[C@H](NC(=O)[C@H](CCCCNC(=O)[C@H](Cc1c[nH]c2ccccc12)NC(=O)[C@@H](N)CCCNC(=N)N)NC(=O)[C@H](Cc1c[nH]c2ccccc12)NC(=O)[C@@H](N)CCCNC(=N)N)C(=O)NCCC(=O)OCc1ccccc1 [(RW)4D-Benzyl ester] (H-RWK([Trp-Arg])K(Lys(α,ε-(ArgTrp)2))[βAla]-OBn) | 6.7 µg/mL (≈ 3.47 µM)
2 | N=C(N)NCCC[C@H](N)C(=O)N[C@@H](Cc1c[nH]c2ccccc12)C(=O)NCCCC[C@H](NC(=O)[C@H](Cc1c[nH]c2ccccc12)NC(=O)[C@@H](N)CCCNC(=N)N)C(=O)NCCCC[C@H](NC(=O)[C@H](CCCCNC(=O)[C@H](Cc1c[nH]c2ccccc12)NC(=O)[C@@H](N)CCCNC(=N)N)NC(=O)[C@H](Cc1c[nH]c2ccccc12)NC(=O)[C@@H](N)CCCNC(=N)N)C(=O)NCCC(=O)NCc1ccccc1 [(RW)4D-Benzyl amine] (H-RWK([Trp-Arg])K(Lys(α,ε-(ArgTrp)2))[βAla]-NHBn) | 5.1 µg/mL (≈ 2.64 µM)
3 | CCCCCCCCCNC(=O)CCNC(=O)[C@H](CCCCNC(=O)[C@H](CCCCNC(=O)[C@H](Cc1c[nH]c2ccccc12)NC(=O)[C@@H](N)CCCNC(=N)N)NC(=O)[C@H](Cc1c[nH]c2ccccc12)NC(=O)[C@@H](N)CCCNC(=N)N)NC(=O)[C@H](CCCCNC(=O)[C@H](Cc1c[nH]c2ccccc12)NC(=O)[C@@H](N)CCCNC(=N)N)NC(=O)[C@H](Cc1c[nH]c2ccccc12)NC(=O)[C@@H](N)CCCNC(=N)N [(RW)4D-Nonylamine] (H-RWK([Trp-Arg])K(Lys(α,ε-(ArgTrp)2))[βAla]-X1) | 5.7 µg/mL (≈ 2.9 µM)
